# Structures can show the parent of a compound that is named as a salt. Where two headings read alike, the source gives them in different places.
# Key:
# [1] = in vitro; details: African green monkey, CC50 (μM); for CC50: Vero E6 cells
# [2] = test system: SARS-CoV-2; experiment: Quantification of SARS-CoV-2 via antibody staining (viral NP protein) in Vero E6 cells; format: cell-based; details: for IC50: viral titer by antinucleocapsid antibody
# [3] = target: Papain-like protease (nsp3) of SARS-CoV-2 (Severe acute respiratory syndrome coronavirus 2, UniProt P0DTD1); experiment: biochemical; format: biochemical; details: 100 uM, FRET-based enzymatic assay, 3 independent experiments, N.I. = no inhibition; for inhibition at 100 µM: read-out: Inhibition % at 100 uM of compounds, Papain-like protease (nsp3)
# [4] = test system: SARS-CoV-2 (hCoV-19/Taiwan/4/2020); experiment: microbe, parasite or virus in culture; format: cell-based; details: for block of viral infection in the cell-based assay (α-glucosidase inhibitors): tested conc. 100 μM (Fig. S4)
# [5] = 100 PFU of SARS-CoV-2 (multiplicity of infection 0.025) in Vero E6 cells
# [6] = Severe acute respiratory syndrome coronavirus 2, Vero C1008, 100 PFU of SARS-CoV-2 (multiplicity of infection 0.025) in Vero E6 cells
# [7] = Severe acute respiratory syndrome coronavirus 2, Vero C1008, minimal dose that showed antiinfective effect after virus challenge, incubation 72 h (D3), Vero E6, read-out: CPE (μM) D3
# [8] = minimal dose that showed antiinfective effect after virus challenge, incubation 120 h (D5), Vero E6, N.I. = no inhibition, dash = cytotoxicity was observed
# [9] = Severe acute respiratory syndrome coronavirus 2, Vero C1008, 72 h, read-out: CPE (μM) D3
# [10] = Severe acute respiratory syndrome coronavirus 2, Vero C1008, 120 h, […], N.I. = no inhibition, dash = cytotoxicity was observed, read-out: CPE (μM) D5
# [11] = Vero E6, concentrations used in the screen (10, 3.3 and 1 μM)
smiles,measurement,setting,value
"CC1=C(C(=O)OC(C)C)C(c2cccc([N+](=O)[O-])c2)C(C(=O)OC2CN(C(c3ccccc3)c3ccccc3)C2)=C(N)N1 (centres unmarked) [Azelnidipine 10, Azelnidipine]",CC50 at 24 h,[1],12.9 µM
same,IC50,[2]; [5],5.3 µM
same,IC50,[2]; [6],5.29 µM
same,"Inhibition % at 100 uM of compounds, Papain-like protease (nsp3)",[3],N.I.
same,minimal effective concentration,[4]; [7],5 µM
same,CPE (μM) D5,[4]; [8],N.I.
"CC(C)(C)NC(=O)N[C@H](C(=O)N1C[C@H]2[C@@H]([C@H]1C(=O)NC(CC1CCC1)C(=O)C(N)=O)C2(C)C)C(C)(C)C (some centres unmarked) [Boceprevir 2, Boceprevir]",IC50,[2]; [5],50.1 µM
same,IC50,[2]; [6],> 50 µM
same,"Inhibition % at 100 uM of compounds, Papain-like protease (nsp3)",[3],N.I.
same,minimal effective concentration,[4]; [7],10 µM
same,minimal effective concentration,"[4]; Severe acute respiratory syndrome coronavirus 2, Vero C1008, minimal dose that showed antiinfective effect after virus challenge, incubation 120 h (D5), Vero E6, N.I. = no inhibition, dash = cytotoxicity was observed, read-out: CPE (μM) D5",10 µM
"COc1ccc2cc1Oc1ccc(cc1)C[C@H]1c3c(cc4c(c3Oc3cc5c(cc3OC)CCN(C)[C@@H]5C2)OCO4)CCN1C [Cepharanthine 4, Cepharanthine]",CC50 at 24 h,[1],12.9 µM
same,IC50,[2]; [6],2.8 µM
same,inhibition at 100 µM,[3],31.9%
same,minimal effective concentration,[4]; [9],3.75 µM
same,minimal effective concentration,[4]; [10],7.5 µM
"CCCCc1oc2ccc(NS(C)(=O)=O)cc2c1C(=O)c1ccc(OCCCN(CCCC)CCCC)cc1 [Dronedarone 12, Dronedarone]",CC50 at 24 h,[1],12.1 µM
same,IC50,[2]; [5],4.5 µM
same,IC50,[2]; [6],4.51 µM
same,"Inhibition % at 100 uM of compounds, Papain-like protease (nsp3)",[3],significant inhibition
same,inhibition at 100 µM,[3],78.6%
same,minimal effective concentration,[4]; [7],7.5 µM
same,CPE (μM) D5,[4]; [8],N.I.
"CC[C@H]1CN2CCc3cc(OC)c(OC)cc3[C@@H]2C[C@@H]1C[C@H]1NCCc2cc(OC)c(OC)cc21 [Emetine 5, Emetine]",CC50,[1],> 10 µM
same,IC50,[2]; [5],0.0004 µM
same,IC50,[2]; [6],0.000397 µM
same,minimal effective concentration,[4]; [9],5 µM
same,minimal effective concentration,[4]; [10],10 µM
CC(=O)N[C@@H](C)C(=O)N[C@H](C(=O)N[C@@H](Cc1ccccc1)[C@@H](O)[C@H](O)[C@H](Cc1ccccc1)NC(=O)[C@@H](NC(=O)[C@H](C)NC(C)=O)C(C)C)C(C)C [JJS-0309],inhibition against SARS-CoV-2 in the cell-based screen,[4],did not show any inhibition
Cc1cccc(C)c1OCC(=O)N[C@@H](Cc1ccccc1)[C@@H](O)C[C@H](Cc1ccccc1)NC(=O)[C@H](C(C)C)N1CCCNC1=O [Lopinavir],inhibition against SARS-CoV-2 in the cell-based screen,[4]; [11],none of these showed inhibition
"CO[C@@H]1[C@@H](OC)[C@H](C)[C@@](O)(CC(=O)O)O[C@H]1[C@H](C)[C@H]1O[C@@]2(CC[C@@](C)([C@H]3CC[C@@](C)([C@@H]4O[C@@H]([C@H]5O[C@](C)(O)[C@H](C)C[C@@H]5C)C[C@@H]4O[C@@H]4C[C@H](OC)[C@@H](OC)[C@H](C)O4)O3)O2)C[C@H](O)[C@H]1C [Maduramicin 15, Maduramicin]",CC50,[1],6.39 µM
same,IC50,[2]; [5],1.3 µM
same,IC50,[2]; [6],1.32 µM
same,selectivity index (antiviral effect vs cytotoxicity),"[2]; Vero E6, CC50 vs IC50",no selectivity
same,"Inhibition % at 100 uM of compounds, Papain-like protease (nsp3)",[3],N.I.
same,minimal effective concentration,[4]; [9],0.039 µM
same,minimal effective concentration,[4]; [10],0.117 µM
CN1C[C@H](O)[C@@H](O)[C@H](O)[C@H]1CO [N-methyl-1-deoxynojirimycin],block of viral infection in the cell-based assay (α-glucosidase inhibitors),[4]; Vero E6,none was able to efficiently block the viral infection
CC(C)c1nc(CN(C)C(=O)N[C@H](C(=O)N[C@@H](Cc2ccccc2)C[C@H](O)[C@H](Cc2ccccc2)NC(=O)OCc2cncs2)C(C)C)cs1 [Ritonavir],inhibition against SARS-CoV-2 in the cell-based screen,[4]; [11],none of these showed inhibition
CCC[C@H](NC(=O)[C@@H]1[C@H]2CCC[C@H]2CN1C(=O)[C@@H](NC(=O)[C@@H](NC(=O)c1cnccn1)C1CCCCC1)C(C)(C)C)C(=O)C(=O)NC1CC1 [Telaprevir],inhibition against SARS-CoV-2 in the cell-based screen,[4]; [11],none of these showed inhibition
Nc1nc(NC2CC2)c2ncn([C@H]3C=C[C@@H](CO)C3)c2n1 [abacavir sulfate],inhibition against SARS-CoV-2 in the cell-based screen,[4]; [11],no active compound was identified
C[C@H]1O[C@H](O[C@H]2[C@H](O)[C@@H](O)[C@@H](O[C@H]3[C@H](O)[C@@H](O)C(O)O[C@@H]3CO)O[C@@H]2CO)[C@H](O)[C@@H](O)[C@@H]1N[C@H]1C=C(CO)[C@@H](O)[C@H](O)[C@H]1O (some centres unmarked) [acarbose],block of viral infection in the cell-based assay (α-glucosidase inhibitors),[4]; Vero E6,none was able to efficiently block the viral infection
Nc1nc2c(ncn2COCCO)c(=O)[nH]1 [acyclovir],inhibition against SARS-CoV-2 in the cell-based screen,[4]; [11],no active compound was identified
CC(C)(C)C(=O)OCOP(=O)(COCCn1cnc2c(N)ncnc21)OCOC(=O)C(C)(C)C [adefovir dipivoxyl],inhibition against SARS-CoV-2 in the cell-based screen,[4]; [11],no active compound was identified
CC(C)CN(C[C@@H](O)[C@H](Cc1ccccc1)NC(=O)O[C@H]1CCOC1)S(=O)(=O)c1ccc(N)cc1 [amprenavir],inhibition against SARS-CoV-2 in the cell-based screen,[4]; [11],none of these showed inhibition
COC(=O)N[C@H](C(=O)N[C@@H](Cc1ccccc1)[C@@H](O)CN(Cc1ccc(-c2ccccn2)cc1)NC(=O)[C@@H](NC(=O)OC)C(C)(C)C)C(C)(C)C [atazanavir],inhibition against SARS-CoV-2 in the cell-based screen,[4]; [11],none of these showed inhibition
Nc1ccn(C[C@@H](CO)OCP(=O)(O)O)c(=O)n1 [cidofovir],inhibition against SARS-CoV-2 in the cell-based screen,[4]; [11],no active compound was identified
COC(=O)N[C@H](C(=O)N1CCC[C@H]1c1nc(-c2ccc(-c3ccc(-c4c[nH]c([C@@H]5CCCN5C(=O)[C@@H](NC(=O)OC)C(C)C)n4)cc3)cc2)c[nH]1)C(C)C [daclatasvir],inhibition against SARS-CoV-2 in the cell-based screen,[4]; [11],none of these showed inhibition
CC(C)(C)OC(=O)N[C@H]1CCCCC/C=C\[C@@H]2C[C@@]2(C(=O)NS(=O)(=O)C2CC2)NC(=O)[C@@H]2C[C@@H](OC(=O)N3Cc4cccc(F)c4C3)CN2C1=O [danoprevir],inhibition against SARS-CoV-2 in the cell-based screen,[4]; [11],none of these showed inhibition
CC(C)CN(C[C@@H](O)[C@H](Cc1ccccc1)NC(=O)O[C@H]1CO[C@H]2OCC[C@H]21)S(=O)(=O)c1ccc(N)cc1 [darunavir],inhibition against SARS-CoV-2 in the cell-based screen,[4]; [11],none of these showed inhibition
CC[C@H](CC[C@@H](C)[C@H]1CC[C@H]2[C@@H]3CC=C4C[C@@H](O[C@@H]5O[C@H](CO)[C@@H](O)[C@H](O)[C@H]5O)CC[C@]4(C)[C@H]3CC[C@]12C)C(C)C [daucosterol],block of viral infection in the cell-based assay (α-glucosidase inhibitors),[4]; Vero E6,none was able to efficiently block the viral infection
CC(C)Nc1cccnc1N1CCN(C(=O)c2cc3cc(NS(C)(=O)=O)ccc3[nH]2)CC1 [delavirdine],inhibition against SARS-CoV-2 in the cell-based screen,[4]; [11],no active compound was identified
O=C1Nc2ccc(Cl)cc2[C@@](C#CC2CC2)(C(F)(F)F)O1 [efavirenz],inhibition against SARS-CoV-2 in the cell-based screen,[4]; [11],no active compound was identified
C=C1[C@H](CO)[C@@H](O)C[C@@H]1n1cnc2c(=O)[nH]c(N)nc21 [entecavir],inhibition against SARS-CoV-2 in the cell-based screen,[4]; [11],no active compound was identified
CC(=O)OCC(CCn1cnc2cnc(N)nc21)COC(C)=O [famciclovir],inhibition against SARS-CoV-2 in the cell-based screen,[4]; [11],no active compound was identified
CC(C)(C)NC(=O)[C@@H]1CN(Cc2cccnc2)CCN1C[C@@H](O)C[C@@H](Cc1ccccc1)C(=O)N[C@H]1c2ccccc2C[C@H]1O [indinavir sulfate],inhibition against SARS-CoV-2 in the cell-based screen,[4]; [11],none of these showed inhibition
OCCN1C[C@H](O)[C@@H](O)[C@H](O)[C@H]1CO [miglitol],block of viral infection in the cell-based assay (α-glucosidase inhibitors),[4]; Vero E6,none was able to efficiently block the viral infection
Cc1ccnc2c1NC(=O)c1cccnc1N2C1CC1 [nevirapine],inhibition against SARS-CoV-2 in the cell-based screen,[4]; [11],no active compound was identified
Nc1nc2c(ncn2CCC(CO)CO)c(=O)[nH]1 [penciclovir],inhibition against SARS-CoV-2 in the cell-based screen,[4]; [11],no active compound was identified
NC(=O)c1ncn([C@@H]2O[C@H](CO)[C@@H](O)[C@H]2O)n1 [ribavirin],inhibition against SARS-CoV-2 in the cell-based screen,[4]; [11],no active compound was identified
CC(C)(C)NC(=O)[C@@H]1C[C@@H]2CCCC[C@@H]2CN1C[C@@H](O)[C@H](Cc1ccccc1)NC(=O)[C@H](CC(N)=O)NC(=O)c1ccc2ccccc2n1 [saquinavir mesylate],inhibition against SARS-CoV-2 in the cell-based screen,[4]; [11],none of these showed inhibition
Cc1cn([C@@H]2C[C@@H](O)[C@H](CO)O2)c(=O)[nH]c1=O [telbivudine],inhibition against SARS-CoV-2 in the cell-based screen,[4]; [11],no active compound was identified
CC(C)OC(=O)OCOP(=O)(CO[C@H](C)Cn1cnc2c(N)ncnc21)OCOC(=O)OC(C)C [tenofovir disoproxil fumarate],inhibition against SARS-CoV-2 in the cell-based screen,[4]; [11],no active compound was identified
OCC(CO)N[C@H]1C[C@](O)(CO)[C@@H](O)[C@H](O)[C@H]1O [voglibose],block of viral infection in the cell-based assay (α-glucosidase inhibitors),[4]; Vero E6,none was able to efficiently block the viral infection
Nc1ccn([C@H]2CC[C@@H](CO)O2)c(=O)n1 [zalcitabine],inhibition against SARS-CoV-2 in the cell-based screen,[4]; [11],no active compound was identified

# From publication PMC7865145, “Identification of existing pharmaceuticals and herbal medicines as inhibitors of SARS-CoV-2 infection” (Proceedings of the National Academy of Sciences of the …, 2021)
